Structures can show the parent of a compound that is named as a salt.
Legend:
Test in all cases: PI3K enzyme inhibitory activity in the cell free assay (ADP-Glo Kinase Assay)
Type in all cases: biochemical
[1] = target: T1, PI3Kα (Homo sapiens, UniProt P42336); conditions: human recombinant PI3Kα, ATP 50 μM; read-out: PI3K alpha inhibition
T1 construct: purchased Millipore Ltd (Billerica, Mass.)

[2] = target: T2, PI3Kβ (Homo sapiens, UniProt P42338); conditions: human recombinant PI3Kβ, ATP 100 μM; read-out: PI3K beta inhibition
T2 construct: purchased Millipore Ltd (Billerica, Mass.)
T2 sequence (P42338 whole entry): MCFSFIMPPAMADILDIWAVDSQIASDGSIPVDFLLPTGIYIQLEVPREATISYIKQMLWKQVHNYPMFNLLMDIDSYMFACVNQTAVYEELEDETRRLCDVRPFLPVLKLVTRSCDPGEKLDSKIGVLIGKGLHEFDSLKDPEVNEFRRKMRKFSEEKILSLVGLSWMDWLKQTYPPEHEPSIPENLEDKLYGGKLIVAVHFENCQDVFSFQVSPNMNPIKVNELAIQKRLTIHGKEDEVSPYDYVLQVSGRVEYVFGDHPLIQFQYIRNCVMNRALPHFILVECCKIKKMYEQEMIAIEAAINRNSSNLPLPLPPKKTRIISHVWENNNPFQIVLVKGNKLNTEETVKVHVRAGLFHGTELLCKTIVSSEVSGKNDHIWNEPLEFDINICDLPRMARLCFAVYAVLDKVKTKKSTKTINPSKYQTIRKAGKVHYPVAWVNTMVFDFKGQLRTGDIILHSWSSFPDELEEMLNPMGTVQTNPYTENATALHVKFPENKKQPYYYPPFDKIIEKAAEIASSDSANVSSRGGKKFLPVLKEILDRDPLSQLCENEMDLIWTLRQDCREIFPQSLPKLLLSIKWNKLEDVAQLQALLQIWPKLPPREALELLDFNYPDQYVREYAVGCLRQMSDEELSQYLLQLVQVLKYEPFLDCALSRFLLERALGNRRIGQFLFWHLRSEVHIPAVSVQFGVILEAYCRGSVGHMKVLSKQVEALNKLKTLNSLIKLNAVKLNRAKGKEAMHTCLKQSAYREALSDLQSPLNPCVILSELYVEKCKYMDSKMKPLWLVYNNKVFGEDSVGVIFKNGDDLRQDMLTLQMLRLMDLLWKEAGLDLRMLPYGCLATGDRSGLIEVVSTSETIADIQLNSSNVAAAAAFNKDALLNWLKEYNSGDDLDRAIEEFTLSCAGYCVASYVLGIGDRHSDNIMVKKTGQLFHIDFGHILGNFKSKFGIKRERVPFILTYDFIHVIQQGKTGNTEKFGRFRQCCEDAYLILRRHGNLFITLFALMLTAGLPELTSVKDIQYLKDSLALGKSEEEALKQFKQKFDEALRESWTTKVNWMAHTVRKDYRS

[3] = target: T3, PI3Kδ (Homo sapiens, UniProt O00329); conditions: human recombinant PI3Kδ, ATP 80 μM; read-out: PI3K delta inhibition
T3 construct: purchased Millipore Ltd (Billerica, Mass.)
T3 sequence (O00329 1-1044): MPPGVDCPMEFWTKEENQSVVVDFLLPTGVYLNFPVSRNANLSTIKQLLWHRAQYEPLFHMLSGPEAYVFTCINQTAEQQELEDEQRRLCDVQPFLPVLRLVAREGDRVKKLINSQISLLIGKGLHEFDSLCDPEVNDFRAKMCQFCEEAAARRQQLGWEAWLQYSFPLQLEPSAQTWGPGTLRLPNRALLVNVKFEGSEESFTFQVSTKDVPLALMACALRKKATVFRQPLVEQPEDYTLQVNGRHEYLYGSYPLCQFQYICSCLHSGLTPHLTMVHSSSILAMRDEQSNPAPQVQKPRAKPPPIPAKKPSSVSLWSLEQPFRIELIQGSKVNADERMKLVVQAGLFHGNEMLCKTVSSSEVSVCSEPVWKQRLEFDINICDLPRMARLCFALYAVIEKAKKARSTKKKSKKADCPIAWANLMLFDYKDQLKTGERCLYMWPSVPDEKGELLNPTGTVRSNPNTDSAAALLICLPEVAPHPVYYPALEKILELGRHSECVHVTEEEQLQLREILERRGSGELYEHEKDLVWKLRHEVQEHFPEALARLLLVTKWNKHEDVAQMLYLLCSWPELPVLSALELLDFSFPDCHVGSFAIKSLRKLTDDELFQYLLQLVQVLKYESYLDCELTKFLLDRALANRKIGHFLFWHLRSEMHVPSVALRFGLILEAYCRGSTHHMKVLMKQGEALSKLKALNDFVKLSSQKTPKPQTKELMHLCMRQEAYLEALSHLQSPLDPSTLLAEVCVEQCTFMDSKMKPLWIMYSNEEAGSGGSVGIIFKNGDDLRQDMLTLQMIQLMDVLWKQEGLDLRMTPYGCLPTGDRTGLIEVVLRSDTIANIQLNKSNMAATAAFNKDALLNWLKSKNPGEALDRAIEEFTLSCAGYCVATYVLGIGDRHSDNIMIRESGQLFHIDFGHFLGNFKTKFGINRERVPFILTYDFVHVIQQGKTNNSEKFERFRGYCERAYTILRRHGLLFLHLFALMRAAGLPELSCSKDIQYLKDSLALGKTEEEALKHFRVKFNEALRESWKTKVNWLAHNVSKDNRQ

[4] = target: T4, PI3Kγ (Homo sapiens, UniProt P48736); conditions: human recombinant PI3Kγ, ATP 30 μM; read-out: PI3K gamma inhibition
T4 construct: purchased Millipore Ltd (Billerica, Mass.)
T4 sequence (P48736 whole entry): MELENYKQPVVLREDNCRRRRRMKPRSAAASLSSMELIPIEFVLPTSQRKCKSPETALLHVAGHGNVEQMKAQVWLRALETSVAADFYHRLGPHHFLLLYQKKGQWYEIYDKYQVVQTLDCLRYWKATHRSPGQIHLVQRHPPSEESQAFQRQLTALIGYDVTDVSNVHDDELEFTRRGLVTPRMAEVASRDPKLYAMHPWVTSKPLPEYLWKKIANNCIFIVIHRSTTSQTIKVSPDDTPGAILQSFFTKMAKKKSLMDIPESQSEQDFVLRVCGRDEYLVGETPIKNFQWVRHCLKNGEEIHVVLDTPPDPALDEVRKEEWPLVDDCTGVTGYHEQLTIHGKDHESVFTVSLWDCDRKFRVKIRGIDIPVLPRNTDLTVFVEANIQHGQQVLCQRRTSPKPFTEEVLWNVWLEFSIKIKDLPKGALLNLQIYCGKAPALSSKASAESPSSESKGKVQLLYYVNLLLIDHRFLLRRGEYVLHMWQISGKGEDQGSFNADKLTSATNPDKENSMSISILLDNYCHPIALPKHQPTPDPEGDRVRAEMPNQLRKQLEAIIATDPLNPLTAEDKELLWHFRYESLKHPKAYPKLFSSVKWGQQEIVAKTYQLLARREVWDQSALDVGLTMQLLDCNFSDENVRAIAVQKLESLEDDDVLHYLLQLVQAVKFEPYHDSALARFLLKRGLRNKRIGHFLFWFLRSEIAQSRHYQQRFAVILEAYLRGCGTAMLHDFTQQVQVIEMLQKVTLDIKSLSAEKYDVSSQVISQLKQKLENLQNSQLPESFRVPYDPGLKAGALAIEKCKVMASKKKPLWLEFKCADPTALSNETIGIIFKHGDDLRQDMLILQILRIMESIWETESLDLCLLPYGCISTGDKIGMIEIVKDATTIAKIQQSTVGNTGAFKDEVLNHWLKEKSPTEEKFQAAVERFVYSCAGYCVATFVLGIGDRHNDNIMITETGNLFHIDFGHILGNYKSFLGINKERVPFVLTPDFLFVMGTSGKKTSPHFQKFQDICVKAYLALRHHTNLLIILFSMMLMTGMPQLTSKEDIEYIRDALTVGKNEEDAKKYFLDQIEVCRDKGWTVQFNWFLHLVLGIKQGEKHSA

T1 sequence (P42336 whole entry): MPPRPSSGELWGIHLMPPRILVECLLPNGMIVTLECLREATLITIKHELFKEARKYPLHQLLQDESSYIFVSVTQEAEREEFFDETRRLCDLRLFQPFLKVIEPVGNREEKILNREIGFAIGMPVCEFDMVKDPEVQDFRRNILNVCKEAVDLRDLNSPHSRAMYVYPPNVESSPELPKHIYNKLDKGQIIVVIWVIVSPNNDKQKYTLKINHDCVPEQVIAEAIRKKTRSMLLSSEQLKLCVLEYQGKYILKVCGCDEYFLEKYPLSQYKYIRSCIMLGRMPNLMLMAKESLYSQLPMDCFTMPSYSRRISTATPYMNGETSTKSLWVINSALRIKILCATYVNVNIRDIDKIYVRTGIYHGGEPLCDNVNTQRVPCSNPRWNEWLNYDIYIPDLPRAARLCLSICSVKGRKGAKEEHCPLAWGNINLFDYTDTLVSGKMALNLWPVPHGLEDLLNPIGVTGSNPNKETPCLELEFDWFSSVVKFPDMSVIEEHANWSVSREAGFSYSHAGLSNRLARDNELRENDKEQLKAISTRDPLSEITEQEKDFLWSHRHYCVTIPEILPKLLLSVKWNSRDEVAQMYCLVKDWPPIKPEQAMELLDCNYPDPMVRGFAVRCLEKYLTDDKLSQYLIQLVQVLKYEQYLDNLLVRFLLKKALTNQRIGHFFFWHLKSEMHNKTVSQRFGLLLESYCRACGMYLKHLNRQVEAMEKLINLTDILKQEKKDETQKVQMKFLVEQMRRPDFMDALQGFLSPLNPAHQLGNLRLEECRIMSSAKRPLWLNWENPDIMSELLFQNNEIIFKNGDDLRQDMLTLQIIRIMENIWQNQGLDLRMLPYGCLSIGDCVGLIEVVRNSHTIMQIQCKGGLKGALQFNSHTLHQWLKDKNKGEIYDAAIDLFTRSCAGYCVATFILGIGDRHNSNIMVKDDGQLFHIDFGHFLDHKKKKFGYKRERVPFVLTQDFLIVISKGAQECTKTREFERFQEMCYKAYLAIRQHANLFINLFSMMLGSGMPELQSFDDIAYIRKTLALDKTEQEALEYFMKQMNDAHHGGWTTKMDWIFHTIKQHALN

IC50 [1] [µM]	IC50 [2] [µM]	IC50 [3] [µM]	IC50 [4] [µM]	Structure (SMILES)
> 1	0.01 to 1	< 0.01	0.01 to 1	CC(c1oc(=O)c2ccccc2c1-c1cncs1)n1nc(-c2cc(O)cc(F)c2)c2c(N)ncnc21 (single isomer, unassigned) [Example 167b, 3-(1-(4-amino-3-(3-fluoro-5-hydroxyphenyl)-1H-pyrazolo[3,4-d]pyrimidin-1-yl)ethyl)-4-(thiazol-5-yl)-1H-isochromen-1-one single enantiomer]
> 1	0.01 to 1	< 0.01	0.01 to 1	CC(c1oc(=O)c2ccccc2c1C1=CCCN(Cc2ccccc2)C1)n1nc(-c2cc(O)cc(F)c2)c2c(N)ncnc21 (single isomer, unassigned) [Example 169a, 3-(1-(4-amino-3-(3-fluoro-5-hydroxyphenyl)-1H-pyrazolo[3,4-d]pyrimidin-1-yl)ethyl)-4-(1-benzyl-1,2,5,6-tetrahydropyridin-3-yl)-1H-isochromen-1-one hydrochloride single enantiomers]
> 1	0.01 to 1	< 0.01	> 1	CC(Nc1ncnc2[nH]cnc12)c1oc(=O)c2ccccc2c1C1=CCNCC1 (stereo not shown) [Example 23, 3-(1-(9H-Purin-6-ylamino)ethyl)-4-(1,2,3,6-tetrahydropyridin-4-yl)-1H-isochromen-1-one hydrochloride]
0.01 to 1	0.01 to 1	< 0.01	0.01 to 1	Cc1cccc(-c2c(C(C)n3nc(-c4cc(O)cc(F)c4)c4c(N)ncnc43)oc(=O)c3ccccc23)c1 (stereo not shown) [Example 41, 3-(1-(4-Amino-3-(3-fluoro-5-hydroxyphenyl)-1H-pyrazolo[3,4-d]pyrimidin-1-yl)ethyl)-4-m-tolyl-1H-isochromen-1-one]
> 1	> 1	< 0.01	> 1	CC(Nc1ncnc2[nH]cnc12)c1oc(=O)c2ccccc2c1C1=CCN(C)CC1 (stereo not shown) [Example 45, 3-(1-(9H-purin-6-ylamino)ethyl)-4-(1-methyl-1,2,3,6-tetrahydropyridin-4-yl)-1H-isochromen-1-one hydrochloride]
> 1	> 1	0.01 to 1	0.01 to 1	CC(Nc1ncnc2[nH]cnc12)c1oc(=O)c2ccccc2c1-c1ccc(CN2CCOCC2)cc1 (stereo not shown) [Example 47, 3-(1-(9H-purin-6-ylamino)ethyl)-4-(4-(morpholinomethyl)phenyl)-1H-isochromen-1-one hydrochloride]
0.01 to 1	0.01 to 1	< 0.01	0.01 to 1	CC(c1oc(=O)c2ccccc2c1-c1ccccc1)n1nc(-c2cnc(N)s2)c2c(N)ncnc21 (stereo not shown) [Example 59, 3-(1-(4-amino-3-(2-aminothiazol-5-yl)-1H-pyrazolo[3,4-d]pyrimidin-1-yl)ethyl)-4-phenyl-1H-isochromen-1-one hydrochloride]
0.01 to 1	0.01 to 1	< 0.01	0.01 to 1	COc1ccc(-c2nn(C(C)c3oc(=O)c4ccccc4c3-c3ccccc3)c3ncnc(N)c23)cn1 (stereo not shown) [Example 60, 3-(1-(4-amino-3-(6-methoxypyridin-3-yl)-1H-pyrazolo[3,4-d]pyrimidin-1-yl)ethyl)-4-phenyl-1H-isochromen-1-one]
0.01 to 1	0.01 to 1	< 0.01	0.01 to 1	CC(=O)Nc1ncc(-c2nn(C(C)c3oc(=O)c4ccccc4c3-c3ccccc3)c3ncnc(N)c23)s1 (stereo not shown) [Example 62, N-(5-(4-amino-1-(1-(1-oxo-4-phenyl-1H-isochromen-3-yl)ethyl)-1H-pyrazolo[3,4-d]pyrimidin-3-yl)thiazol-2-yl)acetamide]
0.01 to 1	0.01 to 1	< 0.01	0.01 to 1	CC(c1oc(=O)c2ccccc2c1C1=CCCN(C)C1)n1nc(-c2cc(O)cc(F)c2)c2c(N)ncnc21 (stereo not shown) [Example 63, 3-(1-(4-amino-3-(3-fluoro-5-hydroxyphenyl)-1H-pyrazolo[3,4-d]pyrimidin-1-yl)ethyl)-4-(1-methyl-1,2,5,6-tetrahydropyridin-3-yl)-1H-isochromen-1-one hydrochloride]
0.01 to 1	0.01 to 1	< 0.01	0.01 to 1	CC(c1oc(=O)c2ccccc2c1C1=CCN(Cc2ccncc2)CC1)n1nc(-c2cc(O)cc(F)c2)c2c(N)ncnc21 (stereo not shown) [Example 65, 3-(1-(4-amino-3-(3-fluoro-5-hydroxyphenyl)-1H-pyrazolo[3,4-d]pyrimidin-1-yl)ethyl)-4-(1-(pyridin-4-ylmethyl)-1,2,3,6-tetrahydropyridin-4-yl)-1H-isochromen-1-one hydrochloride]
0.01 to 1	0.01 to 1	< 0.01	0.01 to 1	CC(c1oc(=O)c2ccccc2c1C1=CCN(CC2CC2)CC1)n1nc(-c2cc(O)cc(F)c2)c2c(N)ncnc21 (stereo not shown) [Example 66, 3-(1-(4-amino-3-(3-fluoro-5-hydroxyphenyl)-1H-pyrazolo[3,4-d]pyrimidin-1-yl)ethyl)-4-(1-(cyclopropylmethyl)-1,2,3,6-tetrahydropyridin-4-yl)-1H-isochromen-1-one hydrochloride]
0.01 to 1	0.01 to 1	< 0.01	0.01 to 1	CC(c1oc(=O)c2ccccc2c1-c1ccc(CN2CCCCC2)s1)n1nc(-c2cc(O)cc(F)c2)c2c(N)ncnc21 (stereo not shown) [Example 68, 3-(1-(4-amino-3-(3-fluoro-5-hydroxyphenyl)-1H-pyrazolo[3,4-d]pyrimidin-1-yl)ethyl)-4-(5-(piperidin-1-ylmethyl)thiophen-2-yl)-1H-isochromen-1-one hydrochloride]
> 1	0.01 to 1	< 0.01	0.01 to 1	CC(c1oc(=O)c2ccccc2c1-c1cccc(C(=O)NCCN(C)C)c1)n1nc(-c2cc(O)cc(F)c2)c2c(N)ncnc21 (stereo not shown) [Example 70, 3-(3-(1-(4-amino-3-(3-fluoro-5-hydroxyphenyl)-1H-pyrazolo[3,4-d]pyrimidin-1-yl)ethyl)-1-oxo-1H-isochromen-4-yl)-N-(2-(dimethylamino)ethyl)benzamide hydrochloride]
0.01 to 1	0.01 to 1	< 0.01	0.01 to 1	CC(=O)N1CC=C(c2c(C(C)n3nc(-c4cncc(O)c4)c4c(N)ncnc43)oc(=O)c3ccccc23)CC1 (stereo not shown) [Example 71, 4-(1-acetyl-1,2,3,6-tetrahydropyridin-4-yl)-3-(1-(4-amino-3-(5-hydroxypyridin-3-yl)-1H-pyrazolo[3,4-d]pyrimidin-1-yl)ethyl)-1H-isochromen-1-one]
0.01 to 1	0.01 to 1	< 0.01	0.01 to 1	CC(=O)N1CC=C(c2c(C(C)n3nc(-c4cc(O)cc(F)c4)c4c(N)ncnc43)oc(=O)c3ccccc23)CC1 (stereo not shown) [Example 72, 4-(1-acetyl-1,2,3,6-tetrahydropyridin-4-yl)-3-(1-(4-amino-3-(3-fluoro-5-hydroxyphenyl)-1H-pyrazolo[3,4-d]pyrimidin-1-yl)ethyl)-1H-isochromen-1-one]
0.01 to 1	0.01 to 1	0.01 to 1	> 1	CC(c1oc(=O)c2ccccc2c1C1=CC2CCC(C1)N2C)n1nc(-c2cc(O)cc(F)c2)c2c(N)ncnc21 (stereo not shown) [Example 92, 3-(1-(4-amino-3-(3-fluoro-5-hydroxyphenyl)-1H-pyrazolo[3,4-d]pyrimidin-1-yl)ethyl)-4-(8-methyl-8-azabicyclo[3.2.1]oct-2-en-3-yl)-1H-isochromen-1-one hydrochloride]
0.01 to 1	0.01 to 1	< 0.01	0.01 to 1	Cc1ncc(-c2nn(C(C)c3oc(=O)c4ccccc4c3-c3ccccc3)c3ncnc(N)c23)cc1O (stereo not shown) [Example 99, 3-(1-(4-amino-3-(5-hydroxy-6-methylpyridin-3-yl)-1H-pyrazolo[3,4-d]pyrimidin-1-yl)ethyl)-4-phenyl-1H-isochromen-1-one]
0.01 to 1	0.01 to 1	< 0.01	> 1	CC(c1oc(=O)c2ccccc2c1C1=CCC(N)CC1)n1nc(-c2cc(O)cc(F)c2)c2c(N)ncnc21 (stereo not shown) [Example 103, 3-(1-(4-amino-3-(3-fluoro-5-hydroxyphenyl)-1H-pyrazolo[3,4-d]pyrimidin-1-yl)ethyl)-4-(4-aminocyclohex-1-en-1-yl)-1H-isochromen-1-one hydrochloride]

— US9321776B2, “Isochromene derivatives as phoshoinositide 3-kinases inhibitors” (CHIESI FARMACEUTICI S.p.A., priority 2013, dated 2016)
